Experimental data from patent US12239686B2, “Immune checkpoint inhibitor combinations” (LYTIX BIOPHARMA AS, priority 2014, dated 2025).
Non-standard residues stand in square brackets, D forms with d. Residues, ends and D or L forms follow the SMILES beside them. Dip = N[C@H](C(=O)O)C(c1ccccc1)c1ccccc1

Assays:
[1] = test system: murine A20 B-cell lymphoma; experiment: Murine A20 B-cell lymphoma tumours in mice, intratumoural treatment; type: in vivo; details: for Mean tumour size (mm^2) at day 1: prior to start of treatment
Method: The administration took place by intratumoural injection of LTX-315 dissolved in sterile saline.
The mice were divided into four groups (see Table 8 below for details). The intratumoural treatment was initiated when the tumours had reached the desired size of approximately 5 mm in diameter (minimum of 20 mm^2).
Three dose levels of LTX-315, 1 mg (Group 1), 0.5 mg (Group 2) and 0.25 mg (Group 3) per injection, were investigated. The volume was 50 μl for all injections. LTX-315 was dissolved in sterile 0.9% NaCl water solution. This vehicle was used as control (Group 4). All four groups received three injections.
A calliper was used for tumour size measurements and weighing and physical examination were used as health control.

[2] = test system: murine CT26WT colon carcinoma; experiment: Murine CT26WT colon carcinoma tumours in mice, intratumoural treatment; type: in vivo; details: for Mean tumour size (mm^2) at day 1: prior to start of treatment
Method: The administration takes place by intra-tumoural injection of LTX-315 dissolved in sterile saline (0.9% NaCl in sterile water).
The mice were divided into five groups, 8 mice in each group. When the tumours reached the desired size of 20 mm^2 the treatment by intra tumoural injection was initiated. Group one was treated solely on day 1, Group two on day 1 and 2, Group three on day 1 and 3 and Group four on day 1, 2 and 3. All daily treatments were one single injection of 1.0 mg LTX-315 dissolved in 50 μl (20 mg/ml). Group five was treated with the 50 μl of vehicle for LTX-315 (Group 5).
Weighing and physical examination were used as health controls.

[3] = test system: A375 cells; experiment: TEM electron microscopy, ultrastructural changes; type: cell-based, human
Method: A375 cells were seeded at 1×10^5 cells per well in 6-well plates and allowed to grow for three days to optimize membrane structures in the culture, and the media was changed on the second day. Cells were washed twice in serum-free RPMI before being treated with LTX-315 dissolved in serum-free RPMI at 5, 10 and 25 μg/ml, with serum-free RPMI as a negative control. Cells were then washed with PBS twice before fixation for 24 hours in 4° C. with 4% formaldehyde and 1% gluteralaldehyde in a Hepes buffer at pH 7.8. Dehydration and post-fixation protocols included incubation in a 5% buffered tannic acid and incubation in a 1% osmium-reduced ferrocyanide. Ultrathin sections were prepared, and uranyl acetate (5%) and Reynolds's lead citrate were used for staining and contrasting. Samples were examined on a JEOL JEM-1010 transmission electron microscope, and images were taken with an Olympus Morada side-mounted TEM CCD camera (Olympus soft imaging solutions, GmbH, Germany).

[4] = Group 1, 1 mg intratumoural days 1,2,3
[5] = Group 2, 0.5 mg intratumoural days 1,2,3
[6] = Group 3, 0.25 mg intratumoural days 1,2,3
[7] = Group 1, 1 mg intratumoural day 1
[8] = Group 2, 1 mg intratumoural days 1,2
[9] = Group 3, 1 mg intratumoural days 1,3
[10] = Group 4, 1 mg intratumoural days 1,2,3

Q: What does the source list for NCCCC[C@H](NC(=O)[C@@H](NC(=O)[C@H](Cc1c[nH]c2ccccc12)NC(=O)[C@H](CCCCN)NC(=O)[C@H](CCCCN)NC(=O)[C@H](Cc1c[nH]c2ccccc12)NC(=O)[C@H](Cc1c[nH]c2ccccc12)NC(=O)[C@H](CCCCN)NC(=O)[C@@H](N)CCCCN)C(c1ccccc1)c1ccccc1)C(N)=O [LTX-315, K-K-W-W-K-K-W-Dip-K-NH2] (H-KKWWKKW[Dip]K-NH2)?
A: Mean tumour size (mm^2) on day 4 [1, 4]: 0 mm^2; Mean tumour size (mm^2) on day 9 [1, 4]: 3.70 ± 2.40 mm^2; Mean tumour size (mm^2) on day 14 [1, 4]: 12.43 ± 7.87 mm^2; Mean tumour size (mm^2) at day 1 [1, 4]: 25.82 ± 0.80 mm^2; Relapse of Tumour ([1]; Group 1, 1 mg x3): 25%; Free of Tumour at end of Follow-Up ([1]; Group 1, 1 mg x3, n=7): 42.8%; Tumour Response: complete response ([1]; Group 1, 1 mg x3, n=7): 57.2%; Tumour Response: partial response ([1]; Group 1, 1 mg x3, n=7): 42.8%; treated mice with a complete tumour response ([1]; Group 1, optimal dose 1 mg x3): 3 of 7; Mean tumour size (mm^2) on day 4 [1, 5]: 0 mm^2; Mean tumour size (mm^2) on day 9 [1, 5]: 11.41 ± 4.69 mm^2; Mean tumour size (mm^2) on day 14 [1, 5]: 61.08 ± 23.84 mm^2; Mean tumour size (mm^2) at day 1 [1, 5]: 22.03 ± 0.63 mm^2; Relapse of Tumour ([1]; Group 2, 0.5 mg x3): 0%; Free of Tumour at end of Follow-Up ([1]; Group 2, 0.5 mg x3, n=7): 28.57%; Tumour Response: complete response ([1]; Group 2, 0.5 mg x3, n=7): 28.57%; Mean tumour size (mm^2) on day 4 [1, 6]: 20.60 ± 5.71 mm^2; Mean tumour size (mm^2) on day 9 [1, 6]: 68.49 ± 12.74 mm^2; Mean tumour size (mm^2) on day 14 [1, 6]: 69.42 ± 17.70 mm^2; Mean tumour size (mm^2) at day 1 [1, 6]: 21.25 ± 0.64 mm^2; Tumour Response: complete response ([1]; Group 3, 0.25 mg x3, n=9): 0%; adverse events or toxic effects ([1]; all LTX-315 groups, apart from wound formation): no other adverse events or toxic effects were observed; Relapse of Tumour ([2]; Group 1, 1 mg day 1): 20%; Free of Tumour at end of Follow-Up ([2]; Group 1, 1 mg day 1, n=8): 50%; Mean tumour size (mm^2) on day 6 [2, 7]: 4.343 ± 2.295 mm^2; Mean tumour size (mm^2) on day 10 [2, 7]: 7.171 ± 4.035 mm^2; Mean tumour size (mm^2) on day 17 [2, 7]: 3.712 ± 3.712 mm^2; Mean tumour size (mm^2) at day 1 [2, 7]: 22.69 ± 0.4070 mm^2; Relapse of Tumour ([2]; Group 2, 1 mg days 1,2): 71%; Free of Tumour at end of Follow-Up ([2]; Group 2, 1 mg days 1,2, n=8): 25%; Mean tumour size (mm^2) on day 6 [2, 8]: 1.458 ± 1.458 mm^2; Mean tumour size (mm^2) on day 10 [2, 8]: 5.058 ± 4.014 mm^2; Mean tumour size (mm^2) on day 17 [2, 8]: 6.644 ± 3.430 mm^2; Mean tumour size (mm^2) at day 1 [2, 8]: 22.90 ± 1.155 mm^2; Relapse of Tumour ([2]; Group 3, 1 mg days 1,3): 29%; Free of Tumour at end of Follow-Up ([2]; Group 3, 1 mg days 1,3, n=8): 62.5%; Mean tumour size (mm^2) on day 6 [2, 9]: 2.983 ± 2.983 mm^2; Mean tumour size (mm^2) on day 10 [2, 9]: 10.85 ± 7.553 mm^2; Mean tumour size (mm^2) on day 17 [2, 9]: 0.00 ± 0.00 mm^2; Mean tumour size (mm^2) at day 1 [2, 9]: 21.43 ± 1.141 mm^2; Free of Tumour at end of Follow-Up ([2]; Group 4, 1 mg days 1,2,3, n=8): 62.5%; Tumour Response: complete response ([2]; Group 4, 1 mg days 1,2,3, n=8): 100%; Mean tumour size (mm^2) on day 6 [2, 10]: 0.00 ± 0.00 mm^2; Mean tumour size (mm^2) on day 10 [2, 10]: 0.00 ± 0.00 mm^2; Mean tumour size (mm^2) on day 17 [2, 10]: 1.308 ± 1.308 mm^2; Mean tumour size (mm^2) at day 1 [2, 10]: 24.09 ± 1.653 mm^2; treated animals observed with a complete tumour response ([2]; all four LTX-315 groups together): 27 of the 32; toxic or other adverse effects ([2]; all treated groups): No toxic or other adverse effects besides local necrotic tissue and wound formation were observed; cells with vacuolization ([3]; 3.5 μM): approximately 20%; number of necrotic cells ([3]; 3.5 μM, 60 minutes): less than 5%; cells displaying vacuolization ([3]; 17 μM, 60 min): 4%; cells with necrotic morphology with loss of plasma membrane integrity ([3]; 17 μM, 60 min): approximately 40%
